Test results reported in article PMC9293779, “Elucidation of binding preferences of YEATS domains to site-specific acetylated nucleosome core particles” (The Journal of Biological Chemistry, 2022).

Key:
AF9-YEATS = target: T1, AF9-YEATS (Homo sapiens, UniProt P42568); assay: Peptide array-based binding assay, AF9-YEATS; conditions: 10 μM YEATS domain, 4 °C overnight, anti-GST/HRP chemiluminescence
T1 construct: For ITC experiments, the cDNAs encoding AF9-YEATS (residues 1–138) and YEATS2-YEATS (200–349) were inserted into the same vector; polyhistidine tag (N); GST (N); made in house
T1 sequence (P42568 1-138): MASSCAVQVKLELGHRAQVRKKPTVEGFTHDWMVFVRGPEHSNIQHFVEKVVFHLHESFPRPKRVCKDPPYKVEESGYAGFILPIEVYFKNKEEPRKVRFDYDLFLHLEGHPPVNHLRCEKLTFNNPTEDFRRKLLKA
Method: (§1) For the assay using the MODified Histone Peptide Array, the same cDNA sequences encoding human YEATS domains were amplified by PCR and subcloned into a pCR2.1 vector with a GST-encoding sequence inserted after an N-terminal polyhistidine tag. For microscale thermophoresis measurements, a similar construct but without GST was used. Site-directed mutagenesis of AF9-YEATS (residues 1–138) was conducted by PCR using the DpnI restriction enzyme and the following primer sets: 5′-CCTTCACGCATCCTTTCCTCGTCCTAAAC-3′ (forward) and 5′-GGAAAGGATGCGTGAAGGTGAAACACCAC-3′ (reverse) for E57A and 5′-CGACTATGACCTGTTTCTGCATCTCG-3′ (forward) and 5′-GCAGAAACAGTGCATAGTCGAAGCGAAC-3′ (reverse) for D103A. The introduced mutations were verified by DNA sequencing. For X-ray structural analysis, the cDNAs encoding AF9-YEATS (residues 1–138) and YEATS2-YEATS (202–338) were amplified by PCR and subcloned into the pCR2.1 vector encoding GST and the polyhistidine tag. […]
(§2) Assays were performed using the MODified Histone Peptide Array (Active Motif) following the manufacturer’s protocol. […] Protein binding was detected by Chemi-Lumi One Super (Nacalai Tesque). Signal intensities were quantified by using the Protein Array Analyzer for ImageJ (written by Gilles Carpentier, 2010. The macro is available online: http://rsb.info.nih.gov/ij/macros/toolsets/Protein Array Analyzer.txt).

ENL-YEATS = assay: Peptide array-based binding assay, ENL-YEATS; set-up: species or system human; conditions: 10 μM YEATS domain, 4 °C overnight, anti-GST/HRP chemiluminescence
Method: as §1, §2

GAS41-YEATS = assay: Peptide array-based binding assay, GAS41-YEATS; set-up: species or system human; conditions: 10 μM YEATS domain, 4 °C overnight, anti-GST/HRP chemiluminescence
Method: as §1, §2

YEATS2-YEATS = target: YEATS2-YEATS; set-up: method as in 2 sources, one per row (each row's own in cited_ref): ref 50 = [50]; PMID 27103431; doi:10.1038/cr.2016.49; 50 Zhao D. Guan H. Zhao S. Mi W. Wen H. Li Y. YEATS2 is a selective histone crotonylation reader Cell Res. 26 2016 629 632 27103431 10.1038/cr.2016.49 PMC4856769 ||| ref 31 = [31]; PMID 29057918; doi:10.1038/s41467-017-01173-4; 31 Mi W. Guan H. Lyu J. Zhao D. Xi Y. Jiang S. YEATS2 links histone acetylation to tumorigenesis of non-small cell lung cancer Nat. Commun. 8 2017 1088 29057918 10.1038/s41467-017-01173-4 PMC5651844; conditions: cited from earlier work
HDAC6 = conditions: 1 μM TSA, preincubated 37 °C 1 h, NCP monoacetylated at H4 K5, K8, K12 or K16, 16 h, dot blot
Method: First, we examined whether the reconstituted NCP with Kac is functional as a substrate for lysine deacetylases (KDACs) in vitro. We tested activity of histone deacetylase 6 (HDAC6) toward NCP-containing H4 with K5ac, K8ac, K12ac, or K16ac. […] Subsequently, we examined whether a HDAC-specific inhibitor, trichostatin A (TSA), inhibits deacetylation of Kac-containing NCPs.
The NCPs for deacetylation assays were reconstituted using unmodified H2B. In each deacetylation reaction, 200 ng of the Kac-containing NCP was incubated with 50, 100, 200, or 400 ng of HDAC6 (SignalChem; cat. no. H88-30 G) in 20 μl at 37 °C for 16 h. In the inhibitor assays, TSA was added to the reaction mixture not containing NCP to a final concentration of 1 μM and preincubated at 37 °C for 1 h; NCP monoacetylated either at K5, K8, K12, or K16 of H4 was then added. After the reactions, samples were spotted on a nitrocellulose membrane (BioTrace NT Nitrocellulose Transfer Membrane, 0.2 μm, Pall Corporation, cat. no. 66485) and immunoblotted using H4-specific antibodies, each recognizing acetylation at K5, K8, K12, or K16.

## H4 (1–19) tail peptide diacetylated at K5/K8: peptide on MODified Histone Peptide Array (SGRGKGGKGLGKGGAKRHR; K5 and K8 acetylation; UniProt P62805 2-20, looked up, fragment)
AF9-YEATS
  binding on MODified Histone Peptide Array: bound
ENL-YEATS
  binding on MODified Histone Peptide Array: bound
GAS41-YEATS
  binding on MODified Histone Peptide Array: bound

## K27-crotonylated H3 (1–34) peptide: K27-crotonylated H3 (1–34) peptide of ref 50
YEATS2-YEATS
  Kd: 31.7 µM

## trichostatin A [TSA]
HDAC6
  inhibition of deacetylation by HDAC6: inhibited deacetylation of all four Kac residues by HDAC6
